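Results reflect a 48-hour exposure of cells in 96-well plates to compound at five concentrations. The concentration for 50% growth inhibition is given as GI50.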 Active and inactive are the calls of the source. Rule as the data show it: active = GI50 up to about 1.1 µM and inactive = higher.
Columns and labels:
Experiment in all cases: DTP human tumour cell line panel, 48 h
KM12 = test system: KM12
T47D = test system: T47D
ACHN = test system: ACHN
SF-295 = test system: SF-295
NCI-H522 = test system: NCI-H522
NCI-H460 = test system: NCI-H460
HCC 2998 = test system: HCC 2998
SK-OV-3 = test system: SK-OV-3
NCI-H226 = test system: NCI-H226
SF-268 = test system: SF-268
CCRF-CEM = test system: CCRF-CEM
SW-620 = test system: SW-620
OVCAR-3 = test system: OVCAR-3
SR = test system: SR
DU-145 = test system: DU-145
HT-29 = test system: HT-29
TK-10 = test system: TK-10
NCI-H23 = test system: NCI-H23
A549 = test system: A549
BT-549 = test system: BT-549

Measured: GI50

O=C(O)CCCc1ccc(N(CCCl)CCCl)cc1 [CHLORAMBUCIL]
inactive: KM12 143 µM | T47D 55 µM | ACHN 14.4 µM | SF-295 39.2 µM | NCI-H522 28.4 µM | NCI-H460 14.7 µM | HCC 2998 103 µM | SK-OV-3 110 µM | NCI-H226 95.7 µM | SF-268 34.9 µM | CCRF-CEM 6.31 µM | SW-620 87.9 µM | OVCAR-3 111 µM | SR 5.98 µM | DU-145 61.4 µM | HT-29 130 µM | TK-10 171 µM | NCI-H23 26.6 µM | A549 61.7 µM | BT-549 112 µM
